Test results from US9624241B2 (Incyte Corporation, priority 2013, dated 2017).
Where a name gives a salt, the structure may show the parent alone. Read-outs that look alike come from different tables or passages of the source.

Legend:
BRD4-BD1 = BRD4-BD1 (Homo sapiens (Human), UniProt O60885); experiment: BRD4 AlphaScreen Assay (Example A2), BRD4-BD1; format: binding
Experimental: (§1) BRD4-BD1 and BRD4-BD2 assays were conducted in white 384-well polystyrene plate in a final volume of 40 μL for BD1 and 60 μL for BD2. Inhibitors were first serially diluted in DMSO and added to the plate wells before the addition of other reaction components. […] The assays were carried out at room temperature in the assay buffer (50 mM Tris-HCl, pH 7.5, 0.01% Tween-20, 0.01% BSA, 5 mM DTT), containing 50 nM Biotin-labeled tetra-acetylated histone H4 peptide (H4Ac4) and BRD4-BD1 or BRD4-BD2 protein at concentration less than 1 nM. […] After plate sealing, the plate was incubated in the dark at room temperature for 75 min. before reading on a PHERAstar FS plate reader (BMG Labtech). IC50 determination was performed by fitting the curve of percent control activity versus the log of the inhibitor concentration using the GraphPad Prism 5.0 software.

BRD4-BD2 = BRD4-BD2 (Homo sapiens (Human), UniProt O60885); experiment: BRD4 AlphaScreen Assay (Example A2), BRD4-BD2; format: binding; settings: read-out: BRD4 BD-2 enzyme IC50
Experimental: as §1

[1] = Assay A2, AlphaScreen, BRD4-BD1, read-out: BRD4 BD-1 enzyme IC50
[2] = Assay A2, AlphaScreen, BRD4-BD2

| IC50 (BRD4-BD1; [1]) | IC50 (BRD4-BD2; [2]) | SMILES | IC50 (BRD4-BD2) | IC50 (BRD4-BD1) |
| --- | --- | --- | --- | --- |
| < 100 nM | < 100 nM | Cc1noc(C)c1-c1ccc2nc(C(=O)N(C)C)n3c2c1OC[C@@H]3c1ccccn1 [Example 91, (4S)-7-(3,5-Dimethylisoxazol-4-yl)-N,N-dimethyl-4-pyridin-2-yl-4,5-dihydroimidazo[1,5,4-de][1,4]benzoxazine-2-carboxamide] | – | – |
| 100 to 1000 nM | < 100 nM | Cc1noc(C)c1-c1ccc2[nH]c(=O)n3c2c1OCC3(C(N)=O)c1ccccn1 (stereo not drawn) [Example 74, 7-(3,5-Dimethylisoxazol-4-yl)-2-oxo-4-pyridin-2-yl-1,2,4,5-tetrahydroimidazo[1,5,4-de][1,4]benzoxazine-4-carboxamide 2,2,2-trifluoroacetate] | – | – |
| < 100 nM | < 100 nM | Cc1noc(C)c1-c1ccc2[nH]c(=O)n3c2c1OC(C)C3c1ccccn1 (stereo not drawn) [Example 75, 7-(3,5-dimethylisoxazol-4-yl)-5-methyl-4-pyridin-2-yl-4,5-dihydroimidazo[1,5,4-de][1,4]benzoxazin-2(1H)-one] | – | – |
| < 100 nM | < 100 nM | Cc1noc(C)c1-c1ccc2nc(C(=O)OC(C)(C)C)n3c2c1OC[C@@H]3c1ccccn1 [Example 93, tert-Butyl (4S)-7-(3,5-dimethylisoxazol-4-yl)-4-pyridin-2-yl-4,5-dihydroimidazo[1,5,4-de][1,4]benzoxazine-2-carboxylate] | – | – |
| < 100 nM | < 100 nM | Cc1noc(C)c1-c1ccc2nc(C3=CCN(C(=O)OC(C)(C)C)CC3)n3c2c1OC[C@@H]3c1ccccn1 [Example 97, tert-Butyl 4-[(4S)-7-(3,5-dimethylisoxazol-4-yl)-4-pyridin-2-yl-4,5-dihydroimidazo[1,5,4-de][1,4]benzoxazin-2-yl]-3,6-dihydropyridine-1(2H)-carboxylate] | – | – |
| < 100 nM | < 100 nM | CNC(=O)c1ncccc1C1COc2c(-c3c(C)noc3C)ccc3[nH]c(=O)n1c23 (stereo not drawn) [Example 128, 3-[7-(3,5-Dimethylisoxazol-4-yl)-2-oxo-1,2,4,5-tetrahydroimidazo[1,5,4-de][1,4]benzoxazin-4-yl]-N-methylpyridine-2-carboxamide] | – | – |
| 1000 to 10000 nM | 1000 to 10000 nM | Cc1noc(C)c1-c1ccc2nc(N3CC(O)C3)n3c2c1OCC3c1cccnc1 (single isomer, unassigned) [Example 160D, 1-[7-(3,5-Dimethylisoxazol-4-yl)-4-pyridin-3-yl-4,5-dihydroimidazo[1,5,4-de][1,4]benzoxazin-2-yl]azetidin-3-ol] | – | – |
| < 100 nM | < 100 nM | CC(=O)N1CCCN(c2nc3ccc(-c4c(C)noc4C)c4c3n2[C@@H](c2ccccn2)CO4)CC1 [Example 148, (4S)-2-(4-Acetyl-1,4-diazepan-1-yl)-7-(3,5-dimethylisoxazol-4-yl)-4-pyridin-2-yl-4,5-dihydroimidazo[1,5,4-de][1,4]benzoxazine] | – | – |
| < 100 nM | < 100 nM | CC(=O)N1CCCC(c2nc3ccc(-c4c(C)noc4C)c4c3n2[C@@H](c2ccccn2)CO4)C1 (mixture of isomers) [Example 117, (4S)-2-(1-acetylpiperidin-3-yl)-7-(3,5-dimethylisoxazol-4-yl)-4-pyridin-2-yl-4,5-dihydroimidazo[1,5,4-de][1,4]benzoxazine (mixture of diastereomers)] | – | – |
| < 100 nM | < 100 nM | Cc1noc(C)c1-c1ccc2nc(N3CC(NC(=O)OC(C)(C)C)C3)n3c2c1OC[C@@H]3c1ccccn1 [Example 196, tert-butyl {1-[(4S)-7-(3,5-dimethylisoxazol-4-yl)-4-pyridin-2-yl-4,5-dihydroimidazo[1,5,4-de][1,4]benzoxazin-2-yl]azetidin-3-yl}carbamate] | – | – |
| 1000 to 10000 nM | 100 to 1000 nM | Cc1cnn(C)c1-c1ccc2[nH]c(=O)n3c2c1OCC3c1ccccn1 (stereo not drawn) [Example 44, 7-(1,4-Dimethyl-1H-pyrazol-5-yl)-4-pyridin-2-yl-4,5-dihydroimidazo[1,5,4-de][1,4]benzoxazin-2(1H)-one] | – | – |
| < 100 nM | < 100 nM | Cc1noc(C)c1-c1ccc2nc(C3=CCN(C(=O)OC(C)(C)C)C3)n3c2c1OC[C@@H]3c1ccccn1 [Example 98, tert-Butyl 3-[(4S)-7-(3,5-dimethylisoxazol-4-yl)-4-pyridin-2-yl-4,5-dihydroimidazo[1,5,4-de][1,4]benzoxazin-2-yl]-2,5-dihydro-1H-pyrrole-1-carboxylate] | – | – |
| 1000 to 10000 nM | 100 to 1000 nM | Cc1noc(C)c1-c1cc(C)c2[nH]c(=O)n3c2c1OCC3c1ccccn1 (stereo not drawn) [Example 268, 7-(3,5-dimethylisoxazol-4-yl)-9-methyl-4-pyridin-2-yl-4,5-dihydroimidazo[1,5,4-de][1,4]benzoxazin-2(1H)-one] | – | – |
| < 100 nM | < 100 nM | Cc1noc(C)c1-c1ccc2[nH]c(=O)n3c2c1OCC3c1cccnc1CN (stereo not drawn) [Example 130, 4-[2-(Aminomethyl)pyridin-3-yl]-7-(3,5-dimethylisoxazol-4-yl)-4,5-dihydroimidazo[1,5,4-de][1,4]benzoxazin-2(1H)-one bis(trifluoroacetate)] | – | – |
| < 100 nM | < 100 nM | Cc1noc(C)c1-c1cc(C#N)c2[nH]c(=O)n3c2c1OCC3c1ccccc1 (stereo not drawn) [Example 42, 7-(3,5-Dimethylisoxazol-4-yl)-2-oxo-4-phenyl-1,2,4,5-tetrahydroimidazo[1,5,4-de][1,4]benzoxazine-9-carbonitrile] | – | – |
| – | – | Cc1noc(C)c1-c1cc(C2=CCNCC2)c2[nH]c(=O)n3c2c1OC[C@@H]3c1ccccn1 [Example 87, (4S)-7-(3,5-dimethylisoxazol-4-yl)-4-pyridin-2-yl-9-(1,2,3,6-tetrahydropyridin-4-yl)-4,5-dihydroimidazo[1,5,4-de][1,4]benzoxazin-2(1H)-one bis(2,2,2-trifluoroacetate)] | < 100 nM | 100 to 1000 nM |
| < 100 nM | < 100 nM | Cc1noc(C)c1-c1ccc2nc(C(C)O)n3c2c1OC[C@@H]3c1ccccn1 (stereo partly drawn) [Example 90, 1-[(4S)-7-(3,5-Dimethylisoxazol-4-yl)-4-pyridin-2-yl-4,5-dihydroimidazo[1,5,4-de][1,4]benzoxazin-2-yl]ethanol] | – | – |
| 1000 to 10000 nM | 100 to 1000 nM | Cc1noc(C)c1-c1cc(-c2ccnn2C)c2[nH]c(=O)n3c2c1OC[C@@H]3c1ccccn1 [Example 85, (4S)-7-(3,5-dimethylisoxazol-4-yl)-9-(1-methyl-1H-pyrazol-5-yl)-4-pyridin-2-yl-4,5-dihydroimidazo[1,5,4-de][1,4]benzoxazin-2(1H)-one 2,2,2-trifluoroacetate] | – | – |
| 1000 to 10000 nM | 1000 to 10000 nM | Cc1noc(C)c1-c1cc(C#N)c2[nH]c(=O)n3c2c1OCC3c1ccccn1 (stereo not drawn) [Example 269B, 7-(3,5-dimethylisoxazol-4-yl)-2-oxo-4-pyridin-2-yl-1,2,4,5-tetrahydroimidazo[1,5,4-de][1,4]benzoxazine-9-carbonitrile] | – | – |
| < 100 nM | < 100 nM | Cc1noc(C)c1-c1ccc2[nH]c(=O)n3c2c1OCC3(C)c1ccccn1 (stereo not drawn) [Example 69, 7-(3,5-Dimethylisoxazol-4-yl)-4-methyl-4-pyridin-2-yl-4,5-dihydroimidazo[1,5,4-de][1,4]benzoxazin-2(1H)-one] | – | – |
| < 100 nM | < 100 nM | Cc1noc(C)c1-c1ccc2nc(C(N)=O)n3c2c1OC[C@@H]3c1ccccn1 [Example 96, (4S)-7-(3,5-Dimethylisoxazol-4-yl)-4-pyridin-2-yl-4,5-dihydroimidazo[1,5,4-de][1,4]benzoxazine-2-carboxamide] | – | – |
| < 100 nM | < 100 nM | Cc1noc(C)c1-c1ccc2nc(C3CCN(C(=O)C4CC4)C3)n3c2c1OC[C@@H]3c1ccccn1 (single isomer, unassigned; diastereomer 1) [Example 114A] | – | – |
| 100 to 1000 nM | < 100 nM | COn1c(=O)n2c3c(c(-c4c(C)noc4C)ccc31)CCC2c1ccccn1 (stereo not drawn) [Example 122, 7-(3,5-Dimethylisoxazol-4-yl)-1-methoxy-4-pyridin-2-yl-5,6-dihydro-4H-imidazo[4,5,1-ij]quinolin-2(1H)-one trifluoroacetate] | – | – |
| < 100 nM | < 100 nM | Cc1noc(C)c1-c1ccc2[nH]c(=O)n3c2c1CCC3c1ccccc1 (stereo not drawn) [Example 120, 7-(3,5-Dimethylisoxazol-4-yl)-4-phenyl-5,6-dihydro-4H-imidazo[4,5,1-ij]quinolin-2(1H)-one] | – | – |
| 100 to 1000 nM | 100 to 1000 nM | Cc1noc(C)c1-c1ccc2[nH]c(=O)n3c2c1OC(C(N)=O)C3c1ccccn1 (stereo not drawn) [Example 77, 7-(3,5-dimethylisoxazol-4-yl)-2-oxo-4-pyridin-2-yl-1,2,4,5-tetrahydroimidazo[1,5,4-de][1,4]benzoxazine-5-carboxamide 2,2,2-trifluoroacetate] | – | – |
| < 100 nM | < 100 nM | Cc1noc(C)c1-c1ccc2nc(C3CCN(C(=O)OC(C)(C)C)C3)n3c2c1OC[C@@H]3c1ccccn1 (single isomer, unassigned; diastereoisomer 1) [Example 101A] | – | – |

| SMILES | IC50 (BRD4-BD1; [1]) | IC50 (BRD4-BD2; [2]) | IC50 (BRD4-BD2) | IC50 (BRD4-BD1) |
| --- | --- | --- | --- | --- |
| Cc1noc(C)c1-c1ccc2nc(N(C)CCO)n3c2c1OCC3c1ccccn1 (stereo not drawn) [Example 185, 2-[[7-(3,5-dimethylisoxazol-4-yl)-4-pyridin-2-yl-4,5-dihydroimidazo[1,5,4-de][1,4]benzoxazin-2-yl](methyl)amino]ethanol] | 100 to 1000 nM | – | < 100 nM | – |
